Results as given in patent publication US20170079281A1, “CITRUS-BASED ANTIMICROBIAL COMPOSITION” (priority 2015, published 2017).

Experiments:
S. cerevisiae ISI107 = experiment: MIC microtiter plate assay in filtered apple juice; format: cell-based, Saccharomyces cerevisiae; conditions: filtered apple juice (pH 3.59), 25° C., aerobically
[1] = has been reported; cited from earlier work
Escherichia coli EDL 933 = experiment: MIC by broth dilution method in 96-well microplates; format: cell-based; conditions: Mueller Hinton Broth, 24 h
[2] = system: Salmonella typhimurium SL1344; experiment: as above; format: cell-based; conditions: Mueller Hinton Broth, 24 h
[3] = system: Listeria monocytogenes HPB 2812; experiment: as above; format: cell-based; conditions: Mueller Hinton Broth, 24 h
[4] = system: Staphylococcus aureus ATCC 25923; experiment: as above; format: cell-based; conditions: Mueller Hinton Broth, 24 h
Bacillus cereus L8PQ = experiment: as above; format: cell-based; conditions: Mueller Hinton Broth, 24 h
[5] = system: Aspergillus niger ATCC 1015; experiment: as above; format: cell-based; conditions: Mueller Hinton Broth, 24 h
[6] = system: Xeromyces bisporus ATCC MY-36964; experiment: as above; format: cell-based; conditions: Mueller Hinton Broth, 24 h
[7] = system: Zygosaccharomyces rouxii ATCC R 995; experiment: as above; format: cell-based; conditions: Mueller Hinton Broth, 24 h
[8] = system: total aerobic microflora (TAM); experiment: Accelerated shelf-life testing of strawberry fillings and puddings; format: cell-based; conditions: 0.2% by mass Composition A or 0.1% by mass sodium benzoate; 28° C., 70% RH, 35 days (Month 1 to Month 15)
Description: (§1) The shelf-life of the strawberry fillings and strawberry flavor puddings, containing 0.2% by mass Composition A or 0.1% by mass sodium benzoate, […], from a procedure by Kilcast and Persis (2000) by determining the concentration of total aerobic microflora (TAM) and yeast/molds (YM). […]; Sheldon Manufacturing Inc., Cornelius, Oreg., USA), in order to simulate an accelerated maturity of the products. A storage time of 2 weeks in these conditions corresponds to 6 months in normal conditions (20° C., 45% RH). […] Samples were homogenized for 2 min at 260 rpm in 50 mL of sterile peptone water (0.1% w/v) with a Lab-Blender™ 400 stomacher (Laboratory Equipment, London, UK). From each homogenate, serial dilutions were prepared, plated onto surface of Plate Count Agar (PCA) (Difco, BD) for TAM enumeration or PDA for YM enumeration and incubated for 24-48 h at 37° C. (resp. 28° C.) before counting.

yeast/molds (YM) = experiment: as above; format: cell-based
Description: as §1

SMILES | MIC (S. cerevisiae ISI107) | Resistance to thermal processing [1] | MIC (Escherichia coli EDL 933) | MIC [2] | MIC [3] | MIC [4] | MIC (Bacillus cereus L8PQ) | MIC [5] | MIC [6] | MIC [7] | TAM concentration in strawberry fillings [8] | Yeast/Mold (Y/M) concentration in strawberry flavor puddings (yeast/molds (YM); 0.2% Composition A or 0.1% sodium benzoate, after 35 days accelerated storage, also no growth in control, data not shown) | Yeast/Mold (Y/M) concentration in strawberry fillings (yeast/molds (YM); 0.2% by mass Composition A or 0.1% by mass sodium benzoate, 28° C., 70% RH, 35 days (Month 1 to Month 15))
CCCCCCCCCCCC(=O)N[C@@H](CCCN=C(N)N)C(=O)OCC [lauric arginate, ethyl lauroyl arginate] | about 156 ppm | resistant to all types of thermal processing including boiling |  |  |  |  |  |  |  |  |  |  | 
O=C([O-])c1ccccc1.[Na+] [Sodium benzoate, sodium benzoate] |  |  | 10 730 ppm | 5 185 ppm | 5 185 ppm | 5 185 ppm | 5 185 ppm | 648 ppm | 81 ppm | 162 ppm | total inhibition | no growth | total inhibition
